Legend:
Test in all cases: selective drug sensitivity score (sDSS, relative to normal bone marrow) (sDSS (score)); higher = more potent and effective on the cell line relative to normal bone marrow cells
Details in all cases: 72 h
380 = test system: 380
697 = test system: 697
ALL-SIL = test system: ALL-SIL
CCRF-HSB2 = test system: CCRF-HSB2
COG-LL-319h = test system: COG-LL-319h
COG-LL-355h = test system: COG-LL-355h
COG-LL-402h = test system: COG-LL-402h
DND-41 = test system: DND-41
JURKAT = test system: JURKAT
KASUMI-2 = test system: KASUMI-2
KASUMI-9 = test system: KASUMI-9
MHH-CALL-2 = test system: MHH-CALL-2
MN-60 = test system: MN-60
NALM-16 = test system: NALM-16
P12-ICHIKAWA = test system: P12-ICHIKAWA
PEER = test system: PEER
PF-382 = test system: PF-382
REH = test system: REH
RPMI-8402 = test system: RPMI-8402
TANOUE = test system: TANOUE
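Also: ALL cell lines in 384-well plates, five doses spanning 10,000-fold, each plate scaled between vehicle and 100 µmol/L benzalkonium chloride controls, sDSS an adapted area-under-curve metric.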

SMILES	selective drug sensitivity score 380	selective drug sensitivity score 697	selective drug sensitivity score (ALL-SIL)	selective drug sensitivity score (CCRF-HSB2)	selective drug sensitivity score (COG-LL-319h)	selective drug sensitivity score (COG-LL-355h)	selective drug sensitivity score (COG-LL-402h)	selective drug sensitivity score (DND-41)	selective drug sensitivity score (JURKAT)	selective drug sensitivity score (KASUMI-2)	selective drug sensitivity score (KASUMI-9)	selective drug sensitivity score (MHH-CALL-2)	selective drug sensitivity score (MN-60)	selective drug sensitivity score (NALM-16)	selective drug sensitivity score (P12-ICHIKAWA)	selective drug sensitivity score (PEER)	selective drug sensitivity score (PF-382)	selective drug sensitivity score (REH)	selective drug sensitivity score (RPMI-8402)	selective drug sensitivity score (TANOUE)
O=C(O)CC[C@H]1CC[C@@](c2cc(F)ccc2F)(S(=O)(=O)c2ccc(Cl)cc2)CC1 [MK-0752] (top concentration 1000 nM)	4.6	0	0	1	0	0	0	0.4	0	0	0	3.8	0	0	0	0	0	0	3.2	0
CNC(=O)[C@@H](NC(=O)[C@H](CC(C)C)[C@H](O)C(=O)NO)C(C)(C)C [Marimastat] (top concentration 10000 nM)	-1.28	-0.68	-1.28	-0.78	-1.28	-1.28	-0.38	0.12	2.42	-0.98	-1.28	9.42	1.02	4.22	1.22	1.42	-0.68	-1.28	-0.68	-1.28
Clc1ccc(C(c2ccccc2Cl)C(Cl)Cl)cc1 (stereo not given) [Mitotane] (top concentration 10000 nM)	-0.08	-0.08	-0.08	-0.08	-0.08	0.02	-0.08	-0.08	-0.08	-0.08	-0.08	1.32	-0.08	-0.08	-0.08	-0.08	0.12	-0.08	-0.08	-0.08
CCS(=O)(=O)Nc1ccc(Oc2ccc(F)cc2F)c(-c2cn(C)c(=O)c3[nH]ccc23)c1 [Mivebresib] (top concentration 10000 nM)	-13	16.5	1.7	1.3	7.7	6	12.7	1.5	3.55e-15	-14.8	17.4	14.8	8.2	0.5	9.9	1.1	8	-1.8	4.6	-12
CN1C(=O)N[C@H](Cc2c[nH]c3c(Cl)cccc23)C1=O [Necrostatin_2] (top concentration 10000 nM)	-0.08	-0.08	-0.08	-0.08	-0.08	-0.08	-0.08	-0.08	-0.08	-0.08	-0.08	-0.08	-0.08	-0.08	-0.08	-0.08	-0.08	-0.08	-0.08	-0.08
O=c1ncn2nc(Sc3ccc(F)cc3F)ccc2c1-c1c(Cl)cccc1Cl [Neflamapimod] (top concentration 10000 nM)	4.7	2.9	1.3	0.5	0	2.2	0.1	0.5	1.7	0	3.1	1.8	1	0	1	2.3	0.5	3.1	2.1	1.4
CC(O)c1cc(C(=O)N[C@@H](C)Cn2ccc(-c3ccc(C#N)c(Cl)c3)n2)n[nH]1 (stereo not given in full) [ODM-201] (top concentration 2500 nM)	-0.08	0.12	4.72	1.62	10.6	2.52	4.62	2.12	0.72	-0.28	-0.18	0.02	-0.28	-0.28	0.22	1.02	0.52	0.02	0.12	2.32
C=CC(=O)Nc1cccc(Oc2nc(Nc3ccc(N4CCN(C)CC4)cc3)nc3ccsc23)c1 [Olmutinib] (top concentration 1000 nM)	-0.02	-0.02	-0.02	-0.02	-0.02	1.78	1.28	-0.02	-0.02	-0.02	1.68	6.88	-0.02	-0.02	-0.02	-0.02	-0.02	2.28	-0.02	-0.02
C=CC(=O)Nc1cc(Nc2nccc(-c3cn(C)c4ccccc34)n2)c(OC)cc1N(C)CCN(C)C [Osimertinib] (top concentration 2500 nM)	-3.82	-1.42	-2.52	0.08	-4.12	2.98	0.78	-0.82	-4.22	-3.52	3.88	3.18	-3.02	-4.42	-3.02	1.28	-2.12	0.88	-0.42	-5.22
O=C(Nc1cc(Cl)cc2c1[nH]c1cnccc12)c1cccnc1 [PS-1145] (top concentration 25000 nM)	-0.46	0.44	-0.46	1.34	-0.46	-0.46	-0.46	-0.46	-0.36	-0.46	0.44	6.74	-0.46	-0.46	-0.46	-0.46	-0.46	1.94	-0.46	-0.46
CC(=O)O[C@H]1C(=O)[C@@]2(C)[C@H]([C@H](OC(=O)c3ccccc3)[C@]3(O)C[C@H](OC(=O)[C@H](O)[C@@H](NC(=O)c4ccccc4)c4ccccc4)C(C)=C1C3(C)C)[C@]1(OC(C)=O)CO[C@@H]1C[C@@H]2O [Paclitaxel] (top concentration 1000 nM)	19.9	22.4	20.8	18.8	21.5	5.14	12.8	2.04	18.3	18.3	19.6	17.3	-0.36	14.1	19.9	22.2	13.2	23.1	16	-10.8
CCCCCCCCCCCCCCCCCCOP(=O)([O-])OC1CC[N+](C)(C)CC1 [Perifosine] (top concentration 2500 nM)	-0.16	-0.36	-0.36	-0.36	-0.26	0.64	4.04	-0.36	-0.36	8.74	-0.36	-0.26	-0.36	-0.36	-0.36	-0.36	-0.36	-0.36	-0.36	-0.36
CC[C@@H]1C(=O)OC[C@@H]1Cc1cncn1C [Pilocarpine] (top concentration 40000 nM)	-1.56	-1.56	-0.76	-1.56	-1.56	-1.56	-1.56	4.34	-1.56	-1.56	-1.56	4.44	-1.56	-1.56	-1.56	-1.56	-1.56	-1.56	-1.56	-0.36
Nc1cccc2c1C(=O)N(C1CCC(=O)NC1=O)C2=O (stereo not given) [Pomalidomide] (top concentration 10000 nM)	-0.26	1.74	-0.26	-0.26	-0.26	5.24	0.64	4.24	-0.26	-0.26	6.84	-0.16	-0.26	-0.26	-0.26	-0.26	-0.26	2.74	-0.26	-0.26
Cc1nc(=O)c2cc(CN(C)c3ccc(C(=O)N[C@@H](CCC(=O)O)C(=O)O)s3)ccc2[nH]1 [Raltitrexed] (top concentration 1000 nM)	20.7	25.8	17.3	21.9	25.7	4.82	8.22	16.5	14.6	15.8	15.2	19.6	8.02	9.12	20.4	13	13.1	24.3	23.4	-0.58
C=CC(=O)Nc1cccc(Nc2nc(Nc3ccc(N4CCN(C(C)=O)CC4)cc3OC)ncc2C(F)(F)F)c1 [Rociletinib] (top concentration 10000 nM)	-0.16	3.54	3.64	1.24	0.24	5.84	5.24	-0.56	2.64	-2.46	5.14	1.94	-0.76	4.04	1.94	4.24	0.64	0.84	2.24	-3.16
CC(C)N(CCCNC(=O)Nc1ccc(C(C)(C)C)cc1)C[C@H]1O[C@@H](n2cc(Br)c3c(N)ncnc32)[C@H](O)[C@@H]1O [SGC0946] (top concentration 10000 nM)	-1.12	-0.02	-0.92	0.68	-1.12	1.88	-0.62	-1.02	-0.42	-1.12	0.28	2.18	-0.72	-0.62	0.08	0.88	0.28	5.18	1.78	-1.12
CC[C@H](CO)Nc1nc(NCc2ccccc2)c2ncn(C(C)C)c2n1 [Seliciclib] (top concentration 10000 nM)	-1.04	1.16	3.06	0.56	1.66	2.46	-1.04	9.26	-0.84	-1.04	-0.44	1.26	-1.04	-1.04	-0.94	-0.24	-1.04	-0.14	-0.54	-1.04
